# Measurements taken from patent publication US8835632B2, “Methods to increase the photostability of dyes” (The University of North Carolina at Chapel Hill, priority 2007, dated 2014).
# Legend:
# Assay type in all cases: physicochemical
# [1] = Absorption and fluorescence spectra, extinction coefficient, fluorescence quantum yield
# Procedure: Absorption spectra were recorded on a Hewlett-Packard 8453 diode array UV-Vis spectrophotometer (Agilent Technologies, Inc., Santa Clara, Calif.), and fluorescence measurements were taken on a SPEX® Fluorolog 2 spectrofluorometer (HORIBA Jobin Yvon, Inc., Edison, N.J.). Melting points are not corrected. NMR spectra were obtained on a Varian Mercury 300 MHz (Varian, Inc., Palo Alto, Calif.) or on a Bruker 300 MHz DRX 300 spectrometer (Bruker Biospin Corp., Billerica, Mass.). Mass spectra were obtained on a Hewlett-Packard 1100 high-performance liquid chromatograph equipped with an 1100 mass selective detector (MS-ESI) (Agilent Technologies, Inc.).
# With decreasing solvent polarity, the absorption maximum of dyes 1a-b, 2a-d shifted to longer wavelengths, and the intensity of the transition increased (Table 10, FIG. 11).
# The SCRF/VSCRF predicted emission energies and the solute dipole moments before and after the vertical emission process are given in Table 16. The dipole moments of AI-BA(4) and AI-SO(4) are further decreased on the S1 surface after geometry relaxation (in MeOH solution), and then increased during the S1→S0 transition. This observation is consistent with the blue shifts of the emission bands of AI-BA(4) and AI-SO(4) with increasing solvent polarity from C6H6 to MeOH. By contrast, the dipole moment of I-SO further decreases after S1 state geometry relaxation, and then decreases during the vertical emission process. This observation also is in agreement with the red shift of the I-SO emission band with increasing solvent polarity from C6H6 to MeOH. Similarly to the absorption case, a negligible red shift (ΔEem=0.017 eV) was predicted for the emission band of I-TBA with increasing solvent polarity. A small red shift from C6H6 to DMF (with ΔEem=0.020 eV, or Δλmax=6 nm) is observed. The nearly equal emission energy observed in C6H6 and MeOH can again result in the explicit interactions between the solute and solvent molecules.
# [2] = Photobleaching under constant illumination from a halogen tungsten lamp filtered through glass; conditions: MeOH
# From the text: The photostability of dyes can be important for applications in living cells. The mechanism of photobleaching for merocyanines of varying structure has been examined See Toutchkine et al., J. Am. Chem. Soc. 125:4132-4145 (2003). The photostability of the presently disclosed dyes was characterized by exposing them to constant illumination from a halogen tungsten lamp filtered through glass. This broad spectrum light source provided essentially equal intensity throughout the spectral range where the dyes absorb and where they would be irradiated in vivo (about 600 nm to about 650 nm).
# [3] = Relative rate of reaction with chemically generated singlet oxygen in DMSO; conditions: 2.5 mM, 1O2 from 1,4-dimethylnaphtalene-1,4-endoperoxide
# Procedure: The bleaching rates for the dyes differed by two orders of magnitude. The relative rate constants kr (rel) for product formation during reaction with singlet oxygen were measured by comparing the percent conversions for dyes dissolved in DMSO containing a fixed amount of ^1O2 (2.5 mM solutions; ^1O2 generated by decomposition of 1,4-dimethylnaphtalene-1,4-endoperoxide). The rates were generally higher for dyes with a polar ground state (1a, 2a, 2b, 2d) than for the dyes with their ground state at the “cyanine limit” (3, 4). […] Olefins without allylic hydrogens react with singlet oxygen to form dioxetanes. Dioxetanes are unstable and decompose, to form two carbonyl compounds.
smiles,measurement,setting,value
CCn1c([O-])c(/C=C/C=C/c2cc[n+]3c(c2)C(C)(C)c2ccccc2-3)c(=O)n(CC)c1=S [AI-TBA],Absorbance λmax,[1]; Butanol (BuOH),619 nm
same,Extinction coefficient ε,[1]; Butanol (BuOH),53000
same,Absorption energy Eabs Exp,[1]; C6H6,1.816 eV
same,Absorption energy Eabs Exp,[1]; MeOH,2.153 eV
same,Absorbance λmax,[1]; Methanol (MeOH),576 nm
same,Extinction coefficient ε,[1]; Methanol (MeOH),38000
same,Observed absorption (ε),"[1]; Table 10, BuOH",(53000)
same,Observed absorption λmax,"[1]; Table 10, BuOH",619 nm
same,Observed absorption (ε),"[1]; Table 10, C6H6",(135000)
same,Observed absorption λmax,"[1]; Table 10, C6H6",683 nm
same,Observed absorption (ε),"[1]; Table 10, CH2Cl2",(104000)
same,Observed absorption λmax,"[1]; Table 10, CH2Cl2",655 nm
same,Observed absorption (ε),"[1]; Table 10, CH3CN",(54000)
same,Observed absorption λmax,"[1]; Table 10, CH3CN",615 nm
same,Observed absorption (ε),"[1]; Table 10, DMF",(52000)
same,Observed absorption λmax,"[1]; Table 10, DMF",616 nm
same,Observed absorption (ε),"[1]; Table 10, DMSO",(56000)
same,Observed absorption λmax,"[1]; Table 10, DMSO",607 nm
same,Observed absorption (ε),"[1]; Table 10, EtOH",(46000)
same,Observed absorption λmax,"[1]; Table 10, EtOH",603 nm
same,Observed absorption (ε),"[1]; Table 10, MeOH",(38000)
same,Observed absorption λmax,"[1]; Table 10, MeOH",576 nm
same,Observed absorption (ε),"[1]; Table 10, OcOH",(97000)
same,Observed absorption λmax,"[1]; Table 10, OcOH",633 nm
same,Observed absorption (ε),"[1]; Table 10, i-PrOH",(50000)
same,Observed absorption λmax,"[1]; Table 10, i-PrOH",618 nm
same,Absorption Exp wavelength,"[1]; Table 12, C6H6",683 nm
same,Absorption Exp wavelength,"[1]; Table 12, MeOH",576 nm
"CCN1C(=O)\C(=C/C=C/C=C2/N(C)c3ccccc3C2(C)C)C(O)N(CC)C1=S (stereo not shown) [I-TBA, reference compound]",kph * 10^6 (absolute rate of photobleaching),[2],0.34 s^−1
same,kph(rel) (relative rate of photobleaching),[2]; with respect to standard I-TBA in MeOH,1.00
same,Absorption energy Eabs Exp,[1]; C6H6,2.123 eV
same,Emission energy Eem Exp,[1]; C6H6,2.050 eV
same,Absorption energy Eabs Exp,[1]; MeOH,2.127 eV
same,Emission energy Eem Exp,[1]; MeOH,2.056 eV
same,Observed absorption (ε),"[1]; Table 10, BuOH",(190000)
same,Observed absorption λmax,"[1]; Table 10, BuOH",589 nm
same,Observed absorption (ε),"[1]; Table 10, C6H6",(127000)
same,Observed absorption λmax,"[1]; Table 10, C6H6",584 nm
same,Observed absorption (ε),"[1]; Table 10, DMF",(183000)
same,Observed absorption λmax,"[1]; Table 10, DMF",589 nm
same,Observed absorption (ε),"[1]; Table 10, MeOH",(173000)
same,Observed absorption λmax,"[1]; Table 10, MeOH",583 nm
same,Observed absorption (ε),"[1]; Table 10, OcOH",(180000)
same,Observed absorption λmax,"[1]; Table 10, OcOH",590 nm
same,Absorption Exp wavelength,"[1]; Table 12, C6H6",585 nm
same,Absorption Exp wavelength,"[1]; Table 12, MeOH",583 nm
same,Observed emission (Φ),"[1]; Table 15, BuOH",0.61
same,Observed emission λmax,"[1]; Table 15, BuOH",609 nm
same,Observed emission (Φ),"[1]; Table 15, C6H6",0.20
same,Observed emission λmax,"[1]; Table 15, C6H6",605 nm
same,Observed emission (Φ),"[1]; Table 15, DMF",0.94
same,Observed emission λmax,"[1]; Table 15, DMF",611 nm
same,Observed emission (Φ),"[1]; Table 15, MeOH",0.26
same,Observed emission λmax,"[1]; Table 15, MeOH",603 nm
same,Observed emission (Φ),"[1]; Table 15, OcOH",0.99
same,Observed emission λmax,"[1]; Table 15, OcOH",609 nm
same,Observed red shift of emission ΔEem,[1]; from C6H6 to DMF,0.020 eV
same,Observed red shift of emission Δλmax,[1]; from C6H6 to DMF,6 nm
same,Observed red shift of absorption Δλmax,[1]; from C6H6 to OcOH,6 nm
same,Observed blue shift of absorption Δλmax,[1]; from OcOH to MeOH,7 nm
same,kr(rel) (relative rate constants for product formation during reaction with singlet oxygen produced chemically),[3],1.00
CCn1c(O)c(/C=C/C=C(\C#N)c2cc[n+]3c(c2)C(C)(C)c2ccccc2-3)c(=O)n(CC)c1=S [AI-TBA-CN],Absorbance λmax,[1]; Butanol (BuOH),621 nm
same,Emission λmax,[1]; Butanol (BuOH),641 nm
same,Extinction coefficient ε,[1]; Butanol (BuOH),188000
same,Fluorescence quantum yield Φ,[1]; Butanol (BuOH),0.33
same,Absorbance λmax,[1]; Methanol (MeOH),606 nm
same,Emission λmax,[1]; Methanol (MeOH),632 nm
same,Extinction coefficient ε,[1]; Methanol (MeOH),146000
same,Fluorescence quantum yield Φ,[1]; Methanol (MeOH),0.22
same,Absorbance λmax,[1]; Water-Methanol (H2O—MeOH),593 nm
same,Emission λmax,[1]; Water-Methanol (H2O—MeOH),625 nm
same,Extinction coefficient ε,[1]; Water-Methanol (H2O—MeOH),77000
same,Fluorescence quantum yield Φ,[1]; Water-Methanol (H2O—MeOH),0.17
Cn1c(O)c(/C=C/C=C(\C#N)c2cc[n+]3c(c2)C(C)(C)c2ccccc2-3)c(=O)n(C)c1=O [AI-BA-CN],Absorbance λmax,[1]; Butanol (BuOH),600 nm
same,Emission λmax,[1]; Butanol (BuOH),620 nm
same,Extinction coefficient ε,[1]; Butanol (BuOH),189000
same,Fluorescence quantum yield Φ,[1]; Butanol (BuOH),0.25
same,Absorbance λmax,[1]; Methanol (MeOH),589 nm
same,Emission λmax,[1]; Methanol (MeOH),613 nm
same,Extinction coefficient ε,[1]; Methanol (MeOH),180000
same,Fluorescence quantum yield Φ,[1]; Methanol (MeOH),0.05
same,Absorbance λmax,[1]; Water-Methanol (H2O—MeOH),578 nm
same,Emission λmax,[1]; Water-Methanol (H2O—MeOH),607 nm
same,Extinction coefficient ε,[1]; Water-Methanol (H2O—MeOH),123000
same,Fluorescence quantum yield Φ,[1]; Water-Methanol (H2O—MeOH),0.15
CC1(C)c2ccccc2-[n+]2ccc(/C(C#N)=C/C=C/C3=C(O)c4ccccc4S3(=O)=O)cc21 [AI-SO-CN],Absorbance λmax,[1]; Butanol (BuOH),619 nm
same,Emission λmax,[1]; Butanol (BuOH),640 nm
same,Extinction coefficient ε,[1]; Butanol (BuOH),168000
same,Fluorescence quantum yield Φ,[1]; Butanol (BuOH),0.29
same,Absorbance λmax,[1]; Methanol (MeOH),608 nm
same,Emission λmax,[1]; Methanol (MeOH),624 nm
same,Extinction coefficient ε,[1]; Methanol (MeOH),163000
same,Fluorescence quantum yield Φ,[1]; Methanol (MeOH),0.08
same,Absorbance λmax,[1]; Water-Methanol (H2O—MeOH),601 nm
same,Emission λmax,[1]; Water-Methanol (H2O—MeOH),624 nm
same,Extinction coefficient ε,[1]; Water-Methanol (H2O—MeOH),128000
same,Fluorescence quantum yield Φ,[1]; Water-Methanol (H2O—MeOH),0.08
C[n+]1ccc(/C=C/C2=C([O-])c3ccccc3S2(=O)=O)cc1 [P-SO(2)],Observed absorption (ε),"[1]; Table 10, BuOH",(67000)
same,Observed absorption λmax,"[1]; Table 10, BuOH",519 nm
same,Observed absorption (ε),"[1]; Table 10, C6H6",(169000)
same,Observed absorption λmax,"[1]; Table 10, C6H6",538 nm
same,Observed absorption (ε),"[1]; Table 10, CH2Cl2",(128000)
same,Observed absorption λmax,"[1]; Table 10, CH2Cl2",529 nm
same,Observed absorption (ε),"[1]; Table 10, CH3CN",(89000)
same,Observed absorption λmax,"[1]; Table 10, CH3CN",546 nm
same,Observed absorption (ε),"[1]; Table 10, DMF",(92000)
same,Observed absorption λmax,"[1]; Table 10, DMF",522 nm
same,Observed absorption (ε),"[1]; Table 10, DMSO",(75000)
same,Observed absorption λmax,"[1]; Table 10, DMSO",520 nm
same,Observed absorption (ε),"[1]; Table 10, EtOH",(65000)
same,Observed absorption λmax,"[1]; Table 10, EtOH",514 nm
same,Observed absorption (ε),"[1]; Table 10, MeOH",(57000)
same,Observed absorption λmax,"[1]; Table 10, MeOH",505 nm
same,Observed absorption (ε),"[1]; Table 10, OcOH",(72000)
same,Observed absorption λmax,"[1]; Table 10, OcOH",524 nm
same,Observed absorption (ε),"[1]; Table 10, i-PrOH",(72000)
same,Observed absorption λmax,"[1]; Table 10, i-PrOH",518 nm
same,Observed emission (Φ),"[1]; Table 15, BuOH",0.015
same,Observed emission λmax,"[1]; Table 15, BuOH",535 nm
same,Observed emission (Φ),"[1]; Table 15, C6H6",0.004
same,Observed emission λmax,"[1]; Table 15, C6H6",546 nm
same,Observed emission (Φ),"[1]; Table 15, CH2Cl2",0.01
same,Observed emission λmax,"[1]; Table 15, CH2Cl2",541 nm
same,Observed emission (Φ),"[1]; Table 15, CH3CN",0.011
same,Observed emission λmax,"[1]; Table 15, CH3CN",531 nm
same,Observed emission (Φ),"[1]; Table 15, DMF",0.025
same,Observed emission λmax,"[1]; Table 15, DMF",534 nm
same,Observed emission (Φ),"[1]; Table 15, DMSO",0.024
same,Observed emission λmax,"[1]; Table 15, DMSO",535 nm
same,Observed emission (Φ),"[1]; Table 15, EtOH",0.008
same,Observed emission λmax,"[1]; Table 15, EtOH",533 nm
same,Observed emission (Φ),"[1]; Table 15, MeOH",0.005
same,Observed emission λmax,"[1]; Table 15, MeOH",529 nm
same,Observed emission (Φ),"[1]; Table 15, OcOH",0.024
same,Observed emission λmax,"[1]; Table 15, OcOH",536 nm
same,Observed emission (Φ),"[1]; Table 15, i-PrOH",0.014
same,Observed emission λmax,"[1]; Table 15, i-PrOH",532 nm
Cn1c(O)c(/C=C/C=C/c2cc[n+]3c(c2)C(C)(C)c2ccccc2-3)c(=O)n(C)c1=O [AI-BA],Absorbance λmax,[1]; Butanol (BuOH),615 nm
same,Emission λmax,[1]; Butanol (BuOH),654 nm
same,Extinction coefficient ε,[1]; Butanol (BuOH),154000
same,Fluorescence quantum yield Φ,[1]; Butanol (BuOH),0.29
same,Absorbance λmax,[1]; Methanol (MeOH),585 nm
same,Emission λmax,[1]; Methanol (MeOH),618 nm
same,Extinction coefficient ε,[1]; Methanol (MeOH),83000
same,Fluorescence quantum yield Φ,[1]; Methanol (MeOH),0.52
